Test results: PubChem BioAssay (NCI)
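48-hour exposure; five concentrations; linearly interpolated endpoints. At the GI50, growth is halved. TGI: concentration producing complete growth inhibition.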

How the values were obtained:
Assay in all cases: inhibition of tumour cell growth, NCI panel, 48 h
A498 renal = test system: A498 renal
HCT-15 colon = test system: HCT-15 colon
HOP-62 NSCLC = test system: HOP-62 NSCLC
HT29 colon = test system: HT29 colon
MOLT-4 leukemia = test system: MOLT-4 leukemia
NCI-H460 lung = test system: NCI-H460 lung
OVCAR-4 ovarian = test system: OVCAR-4 ovarian
OVCAR-5 ovarian = test system: OVCAR-5 ovarian
SNB-19 CNS = test system: SNB-19 CNS
SNB-75 CNS = test system: SNB-75 CNS

## CN=C(N)/N=C(\N)Nc1cc2ccccc2c2ccccc12
A498 renal
  TGI: 23.3 µM
HCT-15 colon
  TGI: 33.4 µM
HOP-62 NSCLC
  TGI: 33.4 µM
HT29 colon
  TGI: 32.9 µM
MOLT-4 leukemia
  TGI: 34 µM
NCI-H460 lung
  TGI: 24.4 µM
OVCAR-4 ovarian
  TGI: 33.6 µM
OVCAR-5 ovarian
  TGI: 33 µM
SNB-19 CNS
  TGI: 30.9 µM
SNB-75 CNS
  TGI: 27.6 µM

## CCCC1=C(C(=O)OCC)C(c2ccccc2OC)C(C#N)=C(N)O1 (configuration not stated)
A498 renal
  GI50: 62.2 µM
  TGI: > 100 µM
HCT-15 colon
  GI50: 50.3 µM
  TGI: > 100 µM
HOP-62 NSCLC
  GI50: > 100 µM
  TGI: > 100 µM
HT29 colon
  GI50: 34.4 µM
  TGI: > 100 µM
MOLT-4 leukemia
  GI50: 26.1 µM
  TGI: 89.8 µM
NCI-H460 lung
  GI50: 39.8 µM
  TGI: > 100 µM
OVCAR-4 ovarian
  GI50: 65.4 µM
  TGI: > 100 µM
OVCAR-5 ovarian
  GI50: > 100 µM
  TGI: > 100 µM
SNB-19 CNS
  GI50: > 100 µM
  TGI: > 100 µM
SNB-75 CNS
  GI50: 32.2 µM
  TGI: > 100 µM

## CCOC(=O)C(=O)Nc1c(CC)cccc1C(C)CC (configuration not stated)
A498 renal
  TGI: > 100 µM
HCT-15 colon
  TGI: > 100 µM
HOP-62 NSCLC
  TGI: > 100 µM
HT29 colon
  TGI: > 100 µM
MOLT-4 leukemia
  TGI: > 100 µM
NCI-H460 lung
  TGI: > 100 µM
OVCAR-4 ovarian
  TGI: > 100 µM
OVCAR-5 ovarian
  TGI: > 100 µM
SNB-19 CNS
  TGI: > 100 µM
SNB-75 CNS
  TGI: > 100 µM

## N#CCCOCN(CO)c1nc(N(CO)COCCC#N)nc(N(CO)COCCC#N)n1
A498 renal
  TGI: > 100 µM
HCT-15 colon
  TGI: 37.3 µM
HOP-62 NSCLC
  TGI: > 100 µM
HT29 colon
  TGI: 69.9 µM
MOLT-4 leukemia
  TGI: 50.7 µM
NCI-H460 lung
  TGI: 81.3 µM
OVCAR-4 ovarian
  TGI: 64 µM
OVCAR-5 ovarian
  TGI: > 100 µM
SNB-19 CNS
  TGI: > 100 µM

## CC(=O)N1CC(=O)NC1=S
HCT-15 colon
  TGI: > 100 µM
HOP-62 NSCLC
  TGI: > 100 µM
HT29 colon
  TGI: > 100 µM
MOLT-4 leukemia
  TGI: > 100 µM
OVCAR-4 ovarian
  TGI: > 100 µM
OVCAR-5 ovarian
  TGI: > 100 µM
SNB-19 CNS
  TGI: > 100 µM
SNB-75 CNS
  TGI: > 100 µM

## COc1cc2c(cc1OC)C1Cc3cc(OC)c(OC)cc3C(C2)O1
HOP-62 NSCLC
  TGI: > 100 µM
HT29 colon
  TGI: > 100 µM
MOLT-4 leukemia
  TGI: > 100 µM
NCI-H460 lung
  TGI: > 100 µM
OVCAR-4 ovarian
  TGI: > 100 µM
OVCAR-5 ovarian
  TGI: > 100 µM
SNB-19 CNS
  TGI: > 100 µM
SNB-75 CNS
  TGI: > 100 µM

## Nc1cccc2c1C1=NNC(=O)CC1C2 (configuration not stated)
A498 renal
  TGI: > 100 µM
HCT-15 colon
  TGI: > 100 µM
HOP-62 NSCLC
  TGI: > 100 µM
HT29 colon
  TGI: > 22.9 µM
MOLT-4 leukemia
  TGI: > 100 µM
NCI-H460 lung
  TGI: > 100 µM
OVCAR-4 ovarian
  TGI: > 100 µM
OVCAR-5 ovarian
  TGI: > 100 µM
SNB-19 CNS
  TGI: > 100 µM
SNB-75 CNS
  TGI: > 100 µM

## NC(=O)Nc1ccc(C(=O)NCCCNC(=O)c2ccc(NC(N)=O)cc2)cc1
A498 renal
  TGI: > 100 µM
HCT-15 colon
  TGI: > 100 µM
HOP-62 NSCLC
  TGI: > 100 µM
HT29 colon
  TGI: > 100 µM
MOLT-4 leukemia
  TGI: > 100 µM
NCI-H460 lung
  TGI: > 100 µM
OVCAR-4 ovarian
  TGI: > 100 µM
OVCAR-5 ovarian
  TGI: > 100 µM
SNB-19 CNS
  TGI: > 100 µM
SNB-75 CNS
  TGI: > 100 µM

## Cc1c2cc[n+](C)cc2c(C)c2c1[nH]c1ccc(Cl)cc12
A498 renal
  TGI: 1.4 µM
HCT-15 colon
  TGI: > 100 µM
HOP-62 NSCLC
  TGI: 6.95 µM
HT29 colon
  TGI: 44.9 µM
MOLT-4 leukemia
  TGI: 58.4 µM
NCI-H460 lung
  TGI: 54 µM
OVCAR-4 ovarian
  TGI: 26.5 µM
OVCAR-5 ovarian
  TGI: 84.4 µM
SNB-19 CNS
  TGI: 1.21 µM
SNB-75 CNS
  TGI: 1.05 µM

## O=C(Nc1cccc([N+](=O)[O-])c1)C(=O)C(C(=O)c1ccccc1F)C1OC(=O)C2C=CC=CC21 (configuration not stated)
A498 renal
  TGI: > 100 µM
HCT-15 colon
  TGI: > 100 µM
HOP-62 NSCLC
  TGI: > 100 µM
HT29 colon
  TGI: > 100 µM
MOLT-4 leukemia
  TGI: > 100 µM
NCI-H460 lung
  TGI: > 100 µM
OVCAR-4 ovarian
  TGI: > 100 µM
OVCAR-5 ovarian
  TGI: > 100 µM
SNB-19 CNS
  TGI: > 100 µM
SNB-75 CNS
  TGI: 84.9 µM

## COc1cc(NC(=O)CSc2nc3ccccc3c(=O)n2CCc2ccccc2)cc(OC)c1OC
HOP-62 NSCLC
  GI50: 2.12 µM
  TGI: 4.88 µM
MOLT-4 leukemia
  GI50: > 100 µM
  TGI: > 100 µM
SNB-19 CNS
  GI50: 3.49 µM
  TGI: 17.5 µM
SNB-75 CNS
  GI50: 2.23 µM
  TGI: 11 µM

## CNS(=O)(=O)c1ccc2[nH]c(O)c(C3=Nc4ccccc4C3=O)c2c1
A498 renal
  TGI: > 100 µM
HCT-15 colon
  TGI: > 100 µM
HOP-62 NSCLC
  TGI: > 100 µM
HT29 colon
  TGI: > 100 µM
MOLT-4 leukemia
  TGI: > 100 µM
NCI-H460 lung
  TGI: > 100 µM
OVCAR-5 ovarian
  TGI: > 100 µM
SNB-19 CNS
  TGI: > 100 µM
SNB-75 CNS
  TGI: > 100 µM

## O=C(NCCNc1nccc(-c2c(-c3cccc(O)c3)nc3sccn23)n1)Nc1cccc(C(F)(F)F)c1
A498 renal
  GI50: 7.33 µM
  TGI: 32.6 µM
HCT-15 colon
  GI50: 4.26 µM
  TGI: 24.1 µM
HOP-62 NSCLC
  GI50: 8.33 µM
  TGI: 23.4 µM
HT29 colon
  GI50: 3.45 µM
  TGI: 10.8 µM
MOLT-4 leukemia
  GI50: 3.6 µM
  TGI: 14.6 µM
NCI-H460 lung
  GI50: 4.79 µM
  TGI: 20.8 µM
OVCAR-4 ovarian
  GI50: 3.97 µM
  TGI: 14.2 µM
OVCAR-5 ovarian
  GI50: 16.3 µM
  TGI: 65.3 µM
SNB-19 CNS
  GI50: 5.09 µM
  TGI: 36.2 µM
SNB-75 CNS
  GI50: 2.5 µM
  TGI: 12.7 µM

## Cc1ccc2ccc3ccc(C)nc3c2n1
A498 renal
  TGI: > 100 µM
HCT-15 colon
  TGI: > 100 µM
HOP-62 NSCLC
  TGI: > 100 µM
HT29 colon
  TGI: > 100 µM
MOLT-4 leukemia
  TGI: > 100 µM
NCI-H460 lung
  TGI: > 100 µM
OVCAR-4 ovarian
  TGI: > 100 µM
OVCAR-5 ovarian
  TGI: > 100 µM
SNB-19 CNS
  TGI: > 100 µM
SNB-75 CNS
  TGI: > 100 µM

## C[C@H](N[C@H]1CCC[C@]1(O)C#Cc1ccc2c(c1)OCO2)c1ccccc1
A498 renal
  TGI: > 25 µM
HCT-15 colon
  TGI: > 25 µM
HOP-62 NSCLC
  TGI: > 25 µM
HT29 colon
  TGI: > 25 µM
MOLT-4 leukemia
  TGI: > 25 µM
NCI-H460 lung
  TGI: > 25 µM
OVCAR-4 ovarian
  TGI: > 25 µM
OVCAR-5 ovarian
  TGI: > 25 µM
SNB-19 CNS
  TGI: > 25 µM
SNB-75 CNS
  TGI: > 25 µM
